Experimental data from a melting point compilation (Tetko et al.; mined from patent text by program, amines drawn as free bases though some values may be those of a salt).

SMILES | melting point
COc1c(C)cc(C(=O)CCC(=O)O)cc1C | 108 °C
CCOC(OCC)c1ncn(C(c2ccccc2)(c2ccccc2)c2ccccc2)n1 | 120 to 124 °C
NC1=NN(c2cccc(Cl)n2)C(c2ccc(Cl)cc2)C1 (configuration not stated) | 157 to 158 °C
COc1c2c(nc3ccccc13)CCNCC2 | 112 °C
N#Cc1cnc2cc(Cl)c([N+](=O)[O-])cc2c1Cl | 143 to 153 °C
C(=Cc1ccc(-c2nnc(-c3ccccc3)o2)cc1)c1ccc(-c2cnn(-c3ccccc3)n2)cc1 | 209 to 210 °C
COc1cccc2c1CCC(O)(C(C)=O)C2 (configuration not stated) | 63 to 63.5 °C
CCCCCCCCCCCCCCc1ccc(C(=O)OC)cc1 | 28 to 29 °C
CCOC(=O)c1cnc2c(NC(=O)c3c(Cl)cccc3Cl)cccc2c1C | 159 to 162 °C
N#CC(N)=C(C#N)N=C1c2ccccc2-c2ccccc21 | 156 to 157 °C
COc1ccc(CN=Nc2c(O)c(O)c(N=NCc3ccc(OC)cc3)c3ccccc23)cc1 | 245 to 251 °C
CC(C)c1nc(Cl)c([N+](=O)[O-])c(Cl)n1 | 32 °C
CCN(CC)CCNC(=O)c1cccc2c(=O)c3ccc(I)cc3[nH]c12 | 208 to 210 °C
CCc1c(CO)nc(-c2ccc(OC)c(OC)c2)c2cc(OC)c(OC)cc12 | 160 to 163 °C
CCCOc1ccc(S(C)(=O)=O)cc1-c1nc2c(CC)n[nH]c2c(=O)[nH]1 | 276 to 277 °C
O=c1cc(-c2ccncc2)nc2n1CCCN2 | 219 °C
C[C@H](Nc1ncnc2[nH]cnc12)c1oc2ccc(F)cc2c(=O)c1-c1ccccc1 | 196 to 198 °C
O=C1C2=C(CCCC2)C(=O)N1c1cc(O)ccc1F | 165 °C
COc1cc(-n2c(=O)cc(C(F)(F)F)n(N)c2=O)ccc1C#N | > 230 °C
O=C(O)CCCc1cc2nc(Cl)ccc2n1S(=O)(=O)c1cccc(-c2cncs2)c1 | 157 to 160 °C
COC(=O)NC1(c2ccccc2)CCN(Cc2ccccc2)CC1 | 121 to 122 °C
CCC1(CCCCCBr)C(=O)Nc2cc(F)ccc21 (configuration not stated) | 95 to 96 °C
N#Cc1[nH]c(-c2c(Cl)cc(C(F)(F)F)cc2Cl)nc1C(N)=O | 254 to 255 °C
ON=C1CCCc2occ(-c3cccc(Cl)c3)c21 | 157 to 158 °C
O=C1c2ccccc2C(=O)N1C/C=C/COc1ccc(-n2ccnc2)cc1 | 170 to 171 °C
COC(=O)c1ccc(C(=O)C2=C(C)C(=O)c3ccccc3C2=O)cc1 | 162 °C

SMILES | melting point
N#Cc1c(N2CCCCC2)c(C(=O)OCCO)c2ccccn2c1=O | 140 to 141 °C
COc1cc(C2CC(=O)OC(=O)C2)cc2c(C)c(C)oc12 | 194 to 195 °C
Cc1c2c(cn1C)NC(=O)C(O)N=C2c1ccccc1 (configuration not stated) | 243 °C
O=C(O)C1CCc2c(c3cccc(Br)c3n2C(=O)c2ccccc2)C1 (configuration not stated) | 196 to 198 °C
Cc1ccsc1C1CC(=O)CC(=O)C1 | 166 to 168 °C
Cc1nc(CC(O)Cn2cnc3c2c(=O)n(C)c(=O)n3C)no1 (configuration not stated) | 148 to 150 °C
COc1ccc(C=CC(=O)c2ccco2)c(OC)c1 | 57 to 59 °C
N#CC(C(=O)C(F)(F)F)c1cccc(Cl)c1Cl (configuration not stated) | 74 to 75 °C
S=C1c2cccnc2N(c2ccccc2)C2=NCCN12 | 293 to 296 °C
N#Cc1ccc(C=O)cc1F | 83 °C
Cc1ccc(C(=O)NC(=S)NCc2ccccc2C(N)=O)cc1 | 145 to 147 °C
CCCCCCCCCCCCCCOC(=O)c1cc(C(=O)OCCCCCCCCCCCCCC)cc([N+](=O)[O-])c1 | 60 to 61 °C
COc1ccc(N2CCN(c3c(C)c4c(c(C(C)=O)c3C)OC(C)(C)C4)CC2)cc1 | 156 to 159 °C
COc1cc(C)nc(NC(=O)NS(=O)(=O)c2ccsc2C(=O)N2CCCC2=O)n1 | 184 to 185 °C
CCCn1c([N+](=O)[O-])cnc1-c1cnc(N)s1 | 234 to 236 °C
c1cc(-c2nc3cc4[nH]cnc4cc3[nH]2)ccn1 | > 280 °C
Cc1ccc(C(=O)NCCCCN2CCN(C(c3ccccc3)c3ccccc3)CC2)c(O)n1 | 213 to 214 °C
CCc1nc2ccccc2c(=O)n1CCNc1ccc(SC(C)(C)C(=O)O)cc1 | 124 to 126 °C
Cc1c(NC(=O)c2ccc(-c3ccccc3)c(F)c2)ccc2cc(CN3CCCCC3)cnc12 | 138 to 139 °C
COc1c(N2C[C@H]3C(CF)C[C@@]3(N)C2)c(F)cc2c(=O)c(C(=O)O)cn([C@@H]3C[C@@H]3F)c12 (some centres not stated) | 122 to 125 °C
CCCCCCCCc1c(N)nc(-n2cccn2)nc1CC | 62 to 63 °C
Cc1nnc(NC(=O)C2c3ccccc3Oc3ccccc32)o1 | 261 to 263 °C
O=S1(=O)NCN(C2CCCCCC2)c2cc(Cl)c(Cl)cc21 | 191 to 192 °C
CCn1c([N+](=O)[O-])cnc1-c1nnc2ccc(N=CN(C)C)nn12 | 198 to 200 °C
O=C(Nc1ccc(Cl)cc1F)c1cc(-c2ccc(F)cc2F)ccc1O | 245 to 246 °C
CCOC(=O)CCc1ccc(OCc2ccc(OCc3nc(-c4ccccc4)oc3C)cc2)cc1OCC | 64 to 65 °C

SMILES | melting point
O=P(CN=Cc1ccccc1Cl)(c1ccccc1)c1ccccc1 | 89 °C
COc1ccc(Cl)cc1C(=O)NCCc1ccc(-c2ccccc2)c(S(N)(=O)=O)c1 | 134 to 136 °C
CC(=O)N1CCC(=C2c3ccc(Cl)cc3CCc3cccnc32)CC1 | 155 to 157 °C
Cc1cc(C)n2nc(S(=O)(=O)Cl)c(C#N)c2n1 | 138 °C
N#Cc1ccc(C(=O)c2ccc(S)cc2)cc1 | 156 °C
Cc1nc(Nc2ccc(F)cc2)nc(Br)c1C | 123 °C
CC(=O)C(C#N)c1cccc(Cl)c1 (configuration not stated) | 92 to 97 °C
CC(=O)N(CCCCN1CCN(c2csc3cc(F)ccc23)CC1)C(=O)C(C)C | 98 to 99 °C
CCC(C)(C)OC(=O)NC(C)(Cc1c[nH]c2ccccc12)C(=O)NCCc1ccc(Cl)cc1 (configuration not stated) | 150 to 153 °C
Cc1cn(COC(CO)CO)c(=O)[nH]c1=O | 156 to 157 °C
O=C(O)CCC(=O)c1ccc(-c2ccc(Cl)c(Cl)c2)cc1 | 154 to 156 °C
O=C(NCS(=O)(=O)c1ccccc1)c1cc(Cl)nc(Cl)c1 | 209 to 210 °C
Cc1cc(C#N)ccc1-c1cc(=O)c2c(O)cc(O)c([C@@H]3CCN(C)[C@H]3CO)c2o1 | 145 to 147 °C
CC(=O)c1ccc(NS(C)(=O)=O)c(Oc2ccccc2)c1 | 113 to 114 °C
CN1C(C)(C)CC(CNc2nc(NO)nc(NCC3CC(C)(C)N(C)C(C)(C)C3)n2)CC1(C)C | 157 to 160 °C
COc1ccc(C2(C)C(=O)c3c(N4CCN(C)CC4)cc(Cl)cc3N(Cc3ccccc3)C2=O)cc1 (configuration not stated) | 66 to 67 °C
COc1ccc(C2COCCOC2)c2sc(NC(=O)c3ccnc(CN4CCCC4)c3)nc12 | 108 to 111 °C
C=CC(O)c1cccc(C=Cc2ccc3ccc(Cl)cc3n2)c1 (configuration not stated) | 110 to 112 °C
O=c1[nH]c(=O)n(CCCCCN2CCC(OC(c3ccccc3)c3ccccc3)CC2)c2ccccc12 | 173 to 174 °C
COc1cc(F)cc(-c2ccc3c(c2)C(C)(C)OC(=O)N3)c1 | 181 to 182 °C
CCN(CC)C(=O)n1cnc(S(=O)(=O)C(F)F)n1 | 58 to 59 °C
CCCCCCCCCCOc1cc(OCCCCCCCCCC)cc(N(CC(=O)O)CC(=O)O)c1 | 110 to 114 °C
CC(=O)Nc1ccc(CSc2ccc(CC(=O)O)cc2)c(C(=O)O)c1 | 205 to 207 °C
N#Cc1cc2cccnc2nc1O | 300 °C
CNc1ccc2c(c1N)C(=O)OC21c2cc(F)c(O)cc2Oc2cc(O)c(F)cc21 | 265 °C
Cn1ccc2cc(NC(=O)Nc3cncnc3)ccc21 | 210 to 213 °C

SMILES | melting point
O=C(c1cc2cc(OCc3ccccc3)ccc2[nH]1)C1(c2ccc(Cl)cc2)CCCC1 | 134 to 136 °C
Cc1ccc(NC(=O)c2ccc(CN3CCOCC3)c(C(F)(F)F)c2)cc1-c1ccc2cnncc2c1 | 160 to 162 °C
Cn1cc(CN2C(=O)C3(COc4cc5c(cc43)OCCO5)c3ccccc32)ccc1=O (configuration not stated) | 205 to 207 °C
CC(C)(Oc1ccc(C#N)cc1)C(O)=Cc1ccncn1 | 115 to 117 °C
OCc1cc2cnc(Cl)nc2n1C1CCCC1 | 174 to 176 °C
N#CCC(O)(c1ccc(Br)cc1)c1ccc(-c2ccc(Br)cc2)cc1 (configuration not stated) | 154 °C
COc1cc(C(=O)NS(=O)(=O)c2ccccc2)ccc1Cc1csc2ccc(NC(=O)OC3CCCC3)cc12 | 253 to 254 °C
C=CCNc1nc(NCC=C)c2scc(C)c2n1 | 77 to 80 °C
CS(=O)(=O)c1ccc(-n2nc(CO)cc2-c2ccc(-c3ccco3)cc2)cc1 | 176 °C
COc1cc(-c2nc(N(C)CCN(C)C)c3c(C)c(C#N)sc3n2)cc(OC)c1OC | 125 to 127 °C
COc1cc(Nc2nccc(-c3nc(C)c(C)s3)n2)cc(OC)c1OC | 207 °C
CC(=O)NC(=CC(=O)[C@H](Cc1ccccc1)N(Cc1ccccc1)Cc1ccccc1)Cc1ccccc1 | 95 to 96 °C
CCNc1nc(-c2ccc(F)cc2C)c2ccc(=O)n(-c3c(F)cccc3F)c2n1 | 195 to 196 °C
O=Cc1cc(-c2ccc(O)cc2)c2occc2c1 | 154 to 155 °C
O=C1NC(=O)C(c2ccsc2)O1 (configuration not stated) | 133 to 135 °C
O=c1cc(-c2ccccc2SCc2ccccc2)[nH]c2ccc(Cl)cc12 | 198 to 202 °C
Cc1ccc(C2NCCS2)cc1 (configuration not stated) | 92 to 93 °C
COC(=O)[C@@H]1C[C@H](C(=O)O)Nc2cc(Cl)c(Cl)c(Cl)c21 (relative stereo) | 210 °C
CCCc1c(OCc2cccc(C(=O)NC(C)CCCc3cccnc3)c2)ccc(C(C)=O)c1O (configuration not stated) | 115 to 118 °C
COC(=O)c1ccc(CN2CCC(N)CC2)nc1 | 173 to 175 °C
COC(=O)C=Cc1ccc(OC)c(OC)c1 | 72 to 74 °C
O=C(c1cccnc1)N1CCC(c2ccccc2)=N1 | 87 to 89 °C
CC1=C(c2ccc(O)cc2)C(=O)c2ccc(O)cc21 | 138 to 146 °C
CC(C)(COc1ccc(Cl)cc1)C(=O)Cn1cncn1 | 88 to 90 °C
